In patent US8618094B2, “Fused substituted aminopyrrolidine derivative” (Daiichi Sankyo Company, Limited, priority 2007, dated 2013):
Converted amounts (≈) assume the structure as drawn.

Legend:
Test in all cases: Antibacterial activity (MIC), standard method of the Japanese Society of Chemotherapy
Format in all cases: cell-based
P. mirabilis 08103 = conditions: Proteus mirabilis
Protocol: (§1) Antibacterial activity of the compounds of the present invention was measured in accordance with the standard method specified by the Japanese Society of Chemotherapy.

P. aeruginosa PAO1 = conditions: Pseudomonas aeruginosa
Protocol: as §1

K. pneumoniae TYPE 1 = conditions: Klebsiella pneumoniae, TYPE1
Protocol: as §1

H. influenzae ATCC49247 = conditions: Haemophilus influenzae; H. influenzae ATCC49247 (first half of Table 2); read-out: MIC, H. influenzae ATCC49247
Protocol: as §1

E. coli NIHJ = conditions: Escherichia coli
Protocol: as §1

E. cloacae 03400 = conditions: Enterobacter cloacae
Protocol: as §1

S. pneumoniae J24 = conditions: Streptococcus pneumoniae
Protocol: as §1

S. aureus 870307 = conditions: Staphylococcus aureus
Protocol: as §1

S. aureus FDA 209-P = conditions: Staphylococcus aureus, FDA209
Protocol: as §1

E. faecalis 19433 = conditions: Enterococcus faecalis
Protocol: as §1

[1] = test system: M(B). Caterrhalis ATCC25238; conditions: M(B). Caterrhalis ATCC25238 (first half of Table 2); read-out: MIC, M(B). Caterrhalis ATCC25238
Protocol: as §1

S. pneumoniae 104835 = conditions: Streptococcus pneumoniae
Protocol: as §1

S. epidermidis 56500 = conditions: Staphylococcus epidermidis
Protocol: as §1

[2] = test system: S. pyogenes JCM5674(ATCC12344); conditions: Streptococcus pyogenes
Protocol: as §1

S. marcescens 10100 = conditions: Serratia marcescens
Protocol: as §1

| SMILES | MIC (P. mirabilis 08103) | MIC (P. aeruginosa PAO1) | MIC (K. pneumoniae TYPE 1) | MIC (H. influenzae ATCC49247) | MIC (E. coli NIHJ) | MIC (E. cloacae 03400) | MIC (S. pneumoniae J24) | MIC (S. aureus 870307) | MIC (S. aureus FDA 209-P) | MIC (E. faecalis 19433) | MIC [1] | MIC (S. pneumoniae 104835) | MIC (S. epidermidis 56500) | MIC [2] | MIC (S. marcescens 10100) |
| --- | --- | --- | --- | --- | --- | --- | --- | --- | --- | --- | --- | --- | --- | --- | --- |
| COc1c(N2CC3=CCCC3(N)C2)c(F)cc2c(=O)c(C(=O)O)cn([C@@H]3C[C@@H]3F)c12 (single isomer, unassigned) [Example 25] | 0.025 µg/mL (≈ 0.0599 µM) | 0.39 µg/mL (≈ 0.934 µM) | 0.05 µg/mL (≈ 0.12 µM) | 0.006 µg/mL (≈ 0.0144 µM) | 0.012 µg/mL (≈ 0.0287 µM) | 0.012 µg/mL (≈ 0.0287 µM) | 0.05 µg/mL (≈ 0.12 µM) | 0.39 µg/mL (≈ 0.934 µM) | 0.025 µg/mL (≈ 0.0599 µM) | 0.2 µg/mL (≈ 0.479 µM) | 0.025 µg/mL (≈ 0.0599 µM) | 0.39 µg/mL (≈ 0.934 µM) | 0.1 µg/mL (≈ 0.24 µM) | 0.05 µg/mL (≈ 0.12 µM) | 0.1 µg/mL (≈ 0.24 µM) |
| COc1c(N2CC3(N)CCC4CC43C2)c(F)cc2c(=O)c(C(=O)O)cn([C@@H]3C[C@@H]3F)c12 (single isomer, unassigned) [Example 27] | 0.05 µg/mL (≈ 0.116 µM) | 0.78 µg/mL (≈ 1.81 µM) | 0.1 µg/mL (≈ 0.232 µM) | 0.006 µg/mL (≈ 0.0139 µM) | 0.012 µg/mL (≈ 0.0278 µM) | 0.025 µg/mL (≈ 0.0579 µM) | 0.025 µg/mL (≈ 0.0579 µM) | 0.2 µg/mL (≈ 0.464 µM) | 0.012 µg/mL (≈ 0.0278 µM) | 0.1 µg/mL (≈ 0.232 µM) | 0.05 µg/mL (≈ 0.116 µM) | 0.2 µg/mL (≈ 0.464 µM) | 0.05 µg/mL (≈ 0.116 µM) | 0.05 µg/mL (≈ 0.116 µM) | 0.2 µg/mL (≈ 0.464 µM) |
| O=C(O)c1cn(C2CC2)c2cc(N3CCNCC3)c(F)cc2c1=O [CPFX, ciprofloxacin, reference compound] | 0.012 µg/mL (≈ 0.0362 µM) | 0.05 µg/mL (≈ 0.151 µM) | – | – | ≤ 0.003 µg/mL | – | 0.78 µg/mL (≈ 2.35 µM) | > 6.25 µg/mL | 0.1 µg/mL (≈ 0.302 µM) | 0.78 µg/mL (≈ 2.35 µM) | – | > 6.25 µg/mL | 0.2 µg/mL (≈ 0.604 µM) | 0.39 µg/mL (≈ 1.18 µM) | – |
| Cc1c(N2C[C@]3(N)CCC[C@]3(F)C2)c(F)cc2c(=O)c(C(=O)O)cn([C@@H]3C[C@@H]3F)c12 [Example 17, 7-[(1R,5S)-1-Amino-5-fluoro-3-azabicyclo[3.3.0]octan-3-yl]-6-fluoro-1-[(1R,2S)-2-fluorocyclopropane]-1,4-dihydro-8-methyl-4-oxoquinoline-3-carboxylic acid] | 0.006 µg/mL (≈ 0.0142 µM) | 0.2 µg/mL (≈ 0.475 µM) | 0.012 µg/mL (≈ 0.0285 µM) | ≤ 0.003 µg/mL | ≤ 0.003 µg/mL | 0.006 µg/mL (≈ 0.0142 µM) | 0.025 µg/mL (≈ 0.0593 µM) | 0.2 µg/mL (≈ 0.475 µM) | 0.006 µg/mL (≈ 0.0142 µM) | 0.05 µg/mL (≈ 0.119 µM) | 0.006 µg/mL (≈ 0.0142 µM) | 0.1 µg/mL (≈ 0.237 µM) | 0.025 µg/mL (≈ 0.0593 µM) | 0.025 µg/mL (≈ 0.0593 µM) | 0.05 µg/mL (≈ 0.119 µM) |

Next, values leading:

| MIC (P. mirabilis 08103) | MIC (P. aeruginosa PAO1) | MIC (K. pneumoniae TYPE 1) | MIC (H. influenzae ATCC49247) | MIC (E. coli NIHJ) | MIC (E. cloacae 03400) | MIC (S. pneumoniae J24) | MIC (S. aureus 870307) | MIC (S. aureus FDA 209-P) | MIC (E. faecalis 19433) | MIC [1] | MIC (S. pneumoniae 104835) | MIC (S. epidermidis 56500) | MIC [2] | MIC (S. marcescens 10100) | SMILES |
| --- | --- | --- | --- | --- | --- | --- | --- | --- | --- | --- | --- | --- | --- | --- | --- |
| 0.012 µg/mL (≈ 0.0286 µM) | 0.78 µg/mL (≈ 1.86 µM) | 0.1 µg/mL (≈ 0.238 µM) | 0.006 µg/mL (≈ 0.0143 µM) | 0.025 µg/mL (≈ 0.0596 µM) | 0.025 µg/mL (≈ 0.0596 µM) | 0.012 µg/mL (≈ 0.0286 µM) | 0.1 µg/mL (≈ 0.238 µM) | ≤ 0.003 µg/mL | 0.05 µg/mL (≈ 0.119 µM) | 0.025 µg/mL (≈ 0.0596 µM) | 0.1 µg/mL (≈ 0.238 µM) | 0.012 µg/mL (≈ 0.0286 µM) | 0.025 µg/mL (≈ 0.0596 µM) | 0.2 µg/mL (≈ 0.477 µM) | COc1c(N2C[C@H]3[C@@H](C)C[C@@]3(N)C2)c(F)cc2c(=O)c(C(=O)O)cn([C@@H]3C[C@@H]3F)c12 [Example 2, 7-{(1S,5R,6S)-1-Amino-6-methyl-3-azabicyclo[3.2.0]hept-3-yl}-6-fluoro-1-[(1R,2S)-2-fluorocyclopropyl]-1,4-dihydro-8-methoxy-4-oxoquinoline-3-carboxylic acid] |
| 0.025 µg/mL (≈ 0.0596 µM) | 0.78 µg/mL (≈ 1.86 µM) | 0.1 µg/mL (≈ 0.238 µM) | 0.012 µg/mL (≈ 0.0286 µM) | 0.025 µg/mL (≈ 0.0596 µM) | 0.025 µg/mL (≈ 0.0596 µM) | 0.025 µg/mL (≈ 0.0596 µM) | 0.2 µg/mL (≈ 0.477 µM) | 0.006 µg/mL (≈ 0.0143 µM) | 0.1 µg/mL (≈ 0.238 µM) | 0.05 µg/mL (≈ 0.119 µM) | 0.2 µg/mL (≈ 0.477 µM) | 0.025 µg/mL (≈ 0.0596 µM) | 0.05 µg/mL (≈ 0.119 µM) | 0.2 µg/mL (≈ 0.477 µM) | COc1c(N2C[C@H]3[C@H](C)C[C@@]3(N)C2)c(F)cc2c(=O)c(C(=O)O)cn([C@@H]3C[C@@H]3F)c12 [Example 5, 7-{(1S,5R,6R)-1-Amino-6-methyl-3-azabicyclo[3.2.0]hept-3-yl}-6-fluoro-1-[(1R,2S)-2-fluorocyclopropyl]-1,4-dihydro-8-methoxy-4-oxoquinoline-3-carboxylic acid] |
